From patent US8846393B2, “Methods of improving stem cell homing and engraftment” (Gamida-Cell Ltd., priority 2005, dated 2014)
Where “and” joins values, the source holds several entries; their conditions need not be identical. Equal values may be shown once.

Key:
NOD/SCID mice = assay: In vivo analysis of homing of CFSE-labeled cells to bone marrow
Description: FIGS. 1a-1i are a graphic representation of flow cytometry analysis of the effect of nicotinamide on homing of hematopoietic stem cells into bone marrow of NOD/SCID mice. Non-cultured mononuclear cells or their entire progeny following 3-week expansion with cytokines and nicotinamide (cytokines+NA), or cytokines alone (cytokines) were labeled with CFSE and infused into sublethally irradiated NOD/SCID mice (10×10^6 cells/mouse for the non-cultured group containing 5×10^4 CD34+ cells and the total progeny of 5×10^4 CD34+ cells following 3-week expansion with or without nicotinamide; 20×10^6 cells/mouse containing 180×10^4 CD34+ cells). FIG. 1a is a histogram of the results of flow cytometry of recipient's bone marrow cells showing homing of CFSE+/CD34+ cells after transplantation. FIG. 1b is a histogram of the results of flow cytometry of recipient's bone marrow cells showing homing of total CFSE+ cells after transplantation. Homing of human cells is presented as number of positive events (cytometry) per 100,000 BM cells analyzed. Each bar represents the average ±SE of 3 independent experiments (6-7 mice/experimental group). […] Total human cells that home to the BM are gated (see area R2) based on low side scatter (y axis) and log fluorescence distribution of CFSC expression (x axis) (FIGS. 1c-1f). The bright fluorescence of CFSE was sufficient to separate labeled human cells from unlabeled murine cells by at least 1 log. Cells gated in R2 were then analyzed for CFSE (x axis) and CD34-APC (y axis) (FIGS. 1g-1i). […] After labeling, cells were washed three times in PBS supplemented with 10% FCS and analyzed by flow cytometry for fluorescence intensity, then injected intravenously into sublethally irradiated NOD/SCID mice (10-20 million cells per mouse). […] Homing of human cells was detected by flow cytometry via visualization of CFSE-stained cells over a background of unlabeled murine cells. The bright fluorescence of CFSE was sufficient to separate labeled human cells from unlabeled murine cells by at least 1 log. […]

[1] = system: CD26/dipeptidylpeptidase IV; assay: FACS analysis of CD26 membranal expression on CD34+ cells after short-term incubation; type: cell-based, human
Description: Cells were obtained from umbilical cord blood after normal full-term delivery (informed consent was given). Samples were collected and frozen according to Rubinstein et al. [Rubinstein et al. Proc Natl Acad Sci USA. 1995; 92 (22):10119-10122.] within 24 h postpartum. Prior to use, the cells were thawed in Dextran buffer (Sigma, St. Louis, Mo., USA) containing 2.5% human serum albumin (HAS, Bayer Corp. Elkhart, Ind., USA), layered on a Ficoll-Hypaque gradient (1.077 g/mL; Sigma), and centrifuged at 800×g for 30 min. The mononuclear cells in the interface layer were collected and washed three times in phosphate-buffered saline (PBS, Biological Industries) containing 0.5% HSA. To purify the CD34+ cells, the mononuclear cell fraction was subjected to two cycles of immunomagnetic bead separation, using a “MiniMACS CD34 progenitor cell isolation kit” (Miltenyi Biotec Bergisch, Gladbach, Germany), according to manufacturer's instructions. The purity of the CD34+ population thus obtained was 95-98%, as evaluated by flow cytometry. Percentages of progenitor cells positive for CD26 were determined by staining of CD34+ cells with anti-CD26 FITC purchased from Becton Dickinson. […] Freshly purified CD34+ cells were FACS analyzed for the expression of CD26 (T-0) then incubated±Nicotinamide 5 mM for 20 hours (T-20 hours) and FACS analyzed again.

NC(=O)c1cccnc1 [nicotinamide]
homing of CD34+ cells to bone marrow relative to non-cultured CD34+ cells (NOD/SCID mice; 3-week culture with cytokines + nicotinamide, 24 hours post transplantation, n=21, p<0.05): 6 fold | homing of cultured cells (MNC) compared to nicotinamide-untreated cells (NOD/SCID mice; 3-week culture with cytokines + nicotinamide, total CFSE+ cells, 24 hours post transplantation, n=21, p<0.05): 2 fold | homing to bone marrow over identical cells cultured without nicotinamide (NOD/SCID mice; summary statement on Example 2, mononuclear cells exposed to nicotinamide before transplantation): sixfold | reduction of CD26 expression ([1]; 20 hours with Nicotinamide 5 mM, compared to cells without Nicotinamide and to freshly purified CD34+ cells (T-0)): 2-3 fold | CD26+ cells (%) ([1]; freshly purified CD34+ cells incubated with Nicotinamide 5 mM for 20 hours (T-20)): 2.7% and 6%
